Assay results as given in patent US20230067159A1, “ROR-GAMMA-T INHIBITOR, PREPARATION METHOD THEREOF AND USE THEREOF” (priority 2020, published 2023).
Blank lines part the entries; values can stand above or below the compound they belong to.

How the values were obtained:
[1] = target: T1, RORγ (Homo sapiens, UniProt P51449); test: Fluorescence resonance energy transfer (FRET) test, B-RORγ LBD / Biotin-SRC1; assay type: biochemical
T1 construct: The concentration of B-RORγ LBD was 40 nM
T1 sequence (P51449 269-508 limits assumed): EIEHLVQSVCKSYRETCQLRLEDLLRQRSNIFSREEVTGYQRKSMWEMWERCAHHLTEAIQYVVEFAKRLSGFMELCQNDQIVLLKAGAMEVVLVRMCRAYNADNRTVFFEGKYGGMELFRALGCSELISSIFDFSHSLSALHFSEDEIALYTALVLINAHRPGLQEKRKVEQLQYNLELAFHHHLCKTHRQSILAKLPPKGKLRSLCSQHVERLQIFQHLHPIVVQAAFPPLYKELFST
Method: Biological Example 1 Fluorescence Resonance Energy Transfer (FRET) Test
(1) Preparation of RORγ Test Buffer and 10 mM of DTT
100 mL of 1× Basic test buffer (HEPES (pH 7.4), 100 mM NaCl, 0.01% BSA) was prepared, and 154.25 mg of DTT was added. The mixture was well mixed.
(2) Preparation of Compound with Gradient Concentration
a. Standard compound was prepared: Standard compound was diluted with 100% DMSO to 2.5 mM, then diluted 3-fold with 11 serial dilutions to a final concentration of […];
b. Test compound was prepared referring to the standard compound.
(3) Preparation of 1× Protein Solution Mixture
(§1) a. Preparation of the desired amount of 2× B-RORγ LBD/SA-APC protein mixture: The concentration of B-RORγ LBD was 40 nM, and the concentration of SA-APC was 20 nM. They were mixed by gently inversion, and incubated at room temperature for 15 minutes. Then 400 nM of biotin was added. The mixture was mixed by gently inversion, and incubated at room temperature for 10 minutes;
as §1, with “b.” for “a.”, “Biotin-SRC1/SA-eu” for “B-RORγ LBD/SA-APC”, “Bioin-SRC1” for “B-RORγ LBD”, “SA-eu” for “SA-APC”, “200” for “400”
c. The protein mixtures prepared in step a and step b were mixed at a ratio of 1:1, and incubated at room temperature for 5 minutes;
d. 25 μL of the mixture from step c was added to the 384-well plate containing the test compound;
e. The mixture was centrifuged at 1000 rpm for one minute;
f. The mixture was incubated for 1 hour at room temperature.
(4) Data Collection and Calculation
After incubation at room temperature for 1 hour, the fluorescence values at 665 nm and 615 nm were measured with an EnVision plate reader, and the inhibition rate was calculated.
Inhibition rate %)=[(X−Min)/(Max−Min)]×100%
X is the fluorescence value ratio of “665/615” of the test compound; Min is the average value of “665/615” of the DMSO blank control; Max is the average value of “665/615” of the 10 μM SRC.

[2] = Pharmacokinetic evaluation I in ICR mice; assay type: in vivo; settings: mouse, plasma, po; for bioavailability: p.o. 5 mg/kg, i.v. 1 mg/kg, read-out: Oral bioavailability (F); for AUC(0-t) / Cmax / half-life: 5 mg/kg
Method: Biological Example 2 Pharmacokinetic Evaluation I
ICR mice were weighed after an overnight fast for 15 h, and then randomly divided into groups according to body weight. The test compounds were formulated in a vehicle of 10% DMSO 10% kolliphor HS15^+ 80% Saline. For the test group administered intravenously (indicated by i.v.), the test animals were administered a dose of 1 mg/kg; for the test group administered by oral administration (indicated by p.o.), the test animals were administered a dose of 5 mg/kg. Then, at time points 0, 0.083 (intravenous injection group only), 0.25, 0.5, 1.0, 2.0, 5.0, 7.0 and 24 h, venous blood (approximately 0.2 mL) was collected and placed in an EDTAK2 anticoagulation tube, then centrifuged at 11,000 rpm for 2 min. Plasma was collected and stored at −20° C. or −70° C. until LC/MS/MS analysis. The drug concentration in plasma was measured at each time point, and the pharmacokinetic parameters were calculated according to the drug concentration-time curve.

[3] = Stability in human liver microsomes; assay type: in vitro ADME; settings: pH 7.4; for half-life at 1.5 μM: human liver microsomes 0.5 mg protein/mL, compound 1.5 μM, NADPH, 37° C., read-out: Half-life t1/2; for CLint scaled at 1.5 μM: human liver microsomes, inferred in vivo intrinsic hepatic clearance rate
Method: (§2) Biological Example 4 Stability of the Compounds of the Present Invention in Human and Rat Liver Microsomes
(§3) Human or rat liver microsomes were incubated in double wells in polypropylene tubes. A typical incubation mixture included human or rat liver microsomes (final concentration: 0.5 mg protein/mL), target compound (final concentration: 1.5 μM), and K-phosphate buffered solution (containing […] EDTA, 100 mM, pH=7.4) in a total volume of 30 μL. Compounds were dissolved in DMSO and diluted with K-phosphate buffered solution to give a final working solution concentration of 30 μM. After 10 min of pre-incubation, 25 μL of test compound or positive control solution was transferred to the microsomal solution. The mixture was mixed well and 30 μL of the mixture was immediately pipetted, ice-cold acetonitrile was added, then 15 μL of NADPH was added as T0. 15 μL of NADPH (final concentration: 2 mM) was added to 30 μL of the mixture for the enzymatic reaction, and the entire experiment was carried out in an incubation tube at 37° C. At various time points (0, 20 and 60 min), the reaction was stopped by adding 150 μL of acetonitrile (with internal standard). The protein was removed by centrifugation at 4000 rpm for 10 min, and the supernatant was collected and analyzed by LC-MS/MS.
(§4) For each reaction, the concentration of compound in the incubation of human or rat liver microsomes was plotted (expressed as a percentage) as a percentage relative to the zero time point to infer in vitro metabolic half-life and in vivo intrinsic hepatic clearance rate.

[4] = Stability in rat liver microsomes; assay type: in vitro ADME; settings: pH 7.4; for half-life at 1.5 μM: rat liver microsomes 0.5 mg protein/mL, compound 1.5 μM, NADPH, 37° C., read-out: Half-life t1/2; for CLint scaled at 1.5 μM: rat liver microsomes, inferred in vivo intrinsic hepatic clearance rate
Method: as §2, §3, §4

Compound: CCS(=O)(=O)c1ccc([C@H](CO)NC(=O)c2ccc(N3C[C@@H](Oc4ccc(C(F)(F)F)cc4)C[C@H]3COC(F)(F)F)cc2)cc1 [Example 48, N—((R)-1-(4-(ethylsulfonyl)phenyl)-2-hydroxyethyl)-4-((2S,4S)-2-((trifluoromethoxy)methyl)-4-(4-(trifluoromethyl)phenoxy)pyrrolidin-1-yl)benzamide]
IC50 [1]: 6.4 nM
bioavailability [2]: 50%
AUC(0-t) [2]: 20.9 µM·h
Cmax [2]: 1700 nM
half-life [2]: 11.4 h
half-life at 1.5 μM [3]: 10 h
CLint scaled at 1.5 μM [3]: 2.9 mL/min/kg

Compound: CCS(=O)(=O)c1ccc([C@H](CCO)NC(=O)c2ccc(N3C[C@@H](Oc4ccc(OC(F)(F)F)cc4)C[C@H]3COC(F)F)cc2)cc1 [Example 119, 4-((2S,4S)-2-((difluoromethoxy)methyl)-4-(4-(trifluoromethoxy)phenoxy)pyrrolidin-1-yl)-N—((S)-1-(4-(ethylsulfonyl)phenyl)-3-hydroxypropyl)benzamide]
IC50 [1]: 9.2 nM
bioavailability [2]: 71%
AUC(0-t) [2]: 28.5 µM·h
Cmax [2]: 2380 nM
half-life [2]: 6.5 h
half-life at 1.5 μM [3]: 5.25 h
CLint scaled at 1.5 μM [3]: 4.4 mL/min/kg
half-life at 1.5 μM [4]: 7.17 h
CLint scaled at 1.5 μM [4]: 3.2 mL/min/kg

Compound: CCS(=O)(=O)c1ccc([C@H](CO)NC(=O)c2ccc(N3C[C@@H](Oc4ccc(C(F)(F)F)cc4)C[C@H]3COC(F)F)cc2)cc1 [Example 39]
IC50 [1]: 3 nM
bioavailability [2]: 35%
AUC(0-t) [2]: 11.4 µM·h
Cmax [2]: 1500 nM
half-life [2]: 3.9 h
half-life at 1.5 μM [3]: 3.53 h
CLint scaled at 1.5 μM [3]: 8.2 mL/min/kg
half-life at 1.5 μM [4]: 5.62 h
CLint scaled at 1.5 μM [4]: 7.4 mL/min/kg

bioavailability [2]: 42%
AUC(0-t) [2]: 21 µM·h
Cmax [2]: 1900 nM
half-life [2]: 7.6 h
half-life at 1.5 μM [3]: 6.93 h
CLint scaled at 1.5 μM [3]: 4.2 mL/min/kg
half-life at 1.5 μM [4]: 2.37 h
CLint scaled at 1.5 μM [4]: 38 mL/min/kg
Compound: CCS(=O)(=O)c1ccc([C@H](CCO)NC(=O)c2ccc(N3C[C@@H](Oc4ccc(C(F)(F)F)cc4)C[C@H]3COC(F)F)cc2)cc1 [Example 91]

Compound: CCS(=O)(=O)c1ccc([C@H](CCO)NC(=O)c2ccc(N3C[C@@H](Oc4ccc(OC(F)(F)F)cc4)C[C@H]3CF)cc2)cc1 [Example 117, N—((S)-1-(4-(ethylsulfonyl)phenyl)-3-hydroxypropyl)-4-((2S,4S)-2-(fluoromethyl)-4-(4-(trifluoromethoxy)phenoxy)pyrrolidin-1-yl)benzamide]
IC50 [1]: 14 nM
half-life at 1.5 μM [4]: 6.12 h
CLint scaled at 1.5 μM [4]: 3.8 mL/min/kg

Compound: CCS(=O)(=O)c1ccc(CNC(=O)c2ccc(N3CCC(Nc4ccc(C(F)(F)F)cc4)C3)cc2)cc1 (stereo not drawn) [Example 11, N-(4-(ethylsulfonyl)benzyl)-4-(3-((4-(trifluoromethyl)phenyl)amino)pyrrolidin-1-yl)benzamide]
IC50 [1]: 33.8 nM

Compound: CCS(=O)(=O)c1ccc([C@H](CCO)NC(=O)c2ccc(N3CC(Oc4ccc(OC(F)F)cc4)C[C@H]3COC(F)F)cc2)cc1 (stereo in doubt) [Example 114, 4-((2S,4S)-2-((difluoromethoxy)methyl)-4-(4-(difluoromethoxy)phenoxy)pyrrolidin-1-yl)-N—((S)-1-(4-(ethylsulfonyl)phenyl)-3-hydroxypropyl)benzamide]
IC50 [1]: 2 nM

Compound: CCS(=O)(=O)c1ccc(CNC(=O)c2ccc(N3C[C@H](Oc4ccc(C(F)(F)F)cc4)C[C@H]3COC)cc2)cc1 [Example 25, N-(4-(ethylsulfonyl)benzyl)-4-((2S,4R)-2-(methoxymethyl)-4-(4-(trifluoromethyl)phenoxy)pyrrolidin-1-yl)benzamide]
IC50 [1]: 20 nM

Compound: CCS(=O)(=O)c1ccc([C@H](CO)NC(=O)c2ccc(N3C[C@H](Oc4ccc(C(F)(F)F)cc4)C[C@H]3COCC(F)(F)F)cc2)cc1 [Example 30, N—((R)-1-(4-(ethylsulfonyl)phenyl)-2-hydroxyethyl)-4-((2S,4R)-2-((2,2,2-trifluoroethoxy)methyl)-4-(4-(trifluoromethyl)phenoxy)pyrrolidin-1-yl)benzamide]
IC50 [1]: 17.1 nM

Compound: CCS(=O)(=O)c1ccc([C@H](CO)NC(=O)c2cnc(N3C[C@@H](Oc4ccc(C(F)(F)F)cc4)C[C@H]3COC(F)F)nc2)cc1 [Example 64]
IC50 [1]: 3 nM

Compound: CCS(=O)(=O)c1ccc([C@H](CO)NC(=O)c2ccc(N3C[C@@H](Oc4ccc5c(c4)OC(F)(F)O5)C[C@H]3COC(F)F)cc2)cc1 [Example 82, 4-((2S,4S)-4-((2,2-difluorobenzo[d][1,3]dioxol-5-yl)oxy)-2-((difluoromethoxy)methyl)pyrrolidin-1-yl)-N—((R)-1-(4-(ethylsulfonyl)phenyl)-2-hydroxyethyl)benzamide]
IC50 [1]: 4 nM

Compound: CCS(=O)(=O)c1ccc([C@H](CO)NC(=O)c2ccc(N3C[C@@H](Oc4ccc(C(F)(F)F)nc4)C[C@H]3COC(F)F)cc2)cc1 [Example 83]
IC50 [1]: 6 nM

Compound: CCS(=O)(=O)c1ccc([C@H](CO)NC(=O)c2ccc(N3C[C@H](Oc4ccc(C(F)(F)F)cc4)C[C@H]3COC(F)F)cc2)cc1 [Example 40]
IC50 [1]: 25 nM

Compound: CCS(=O)(=O)c1ccc(CNC(=O)c2cnc(N3C[C@H](Oc4ccc(C(F)(F)F)cc4)C[C@H]3COCCF)nc2)cc1 [Example 58, N-(4-(ethylsulfonyl)benzyl)-2-((2S, 4R)-2-((2-fluoroethoxy)methyl)-4-(4-(trifluoromethyl)phenoxy)pyrrolidin-1-yl)pyrimidine-5-carboxamide]
IC50 [1]: 57.3 nM

Compound: CCS(=O)(=O)c1ccc([C@H](CO)NC(=O)c2ccc(N3C[C@@H](Oc4ccc(C(F)(F)F)cc4)C[C@H]3COC(F)F)nc2OC)cc1 [Example 88]
IC50 [1]: 30 nM

Compound: CCS(=O)(=O)c1ccc(CC(=O)Nc2ccc(C3CN(Cc4ccc(C(F)(F)F)cc4)CC3C)cc2)cc1 (stereo not drawn) [Example 5, 2-(4-(Ethylsulfonyl)phenyl)-N-(4-(4-methyl-1-(4-(trifluoromethyl)benzyl)pyrrolidin-3-yl)phenyl)acetamide]
IC50 [1]: 47 nM

Compound: CCS(=O)(=O)c1ccc(CC(=O)Nc2ccc(N3CCC(Cc4ccc(C(F)(F)F)cc4)C3)cc2)cc1 (stereo not drawn) [Example 1, 2-(4-(Ethylsulfonyl)phenyl)-N-(4-(3-(4-(trifluoromethyl)benzyl)pyrrolidin-1-yl)phenyl) acetamide]
IC50 [1]: 12 nM
